The record followed here is US20260116868A1 (Arcus Biosciences, Inc., priority 2023, published 2026).

For orientation: EC50 means the concentration needed to bring the measured effect to its halfway point. The term IC50 denotes the point on the concentration scale where inhibition reaches its midpoint.

Structures are written as SMILES. Bounds are passed on as bounds.

For one assay, the system named is Jurkat cells. The experiment in a line: IL-2 secretion assay in Jurkat cells activated with CD3/CD28 T Cell Activator. As to conditions: Homo sapiens; Jurkat cells, CD3/CD28 T Cell Activator, 24 h, IL-2 AlphaLISA; read-out: IL-2 Secretion (EC50). Format: cell-based. The procedure:
Certain compounds were also evaluated in an IL-2 secretion assay. On the day of the assay, a 16 point, 1:2 master serial dilution of each compound was prepared in Opti-MEM to span a final concentration range of 10 μM to 300 pM. Assays were set up in CORNING® tissue culture-treated 384-well microplates containing 60 nL of each dilution. Jurkat cells grown in RPMI-1640 supplemented with 10% FBS, 1% Glutamax, and 1% Pen/Strep were collected, resuspended in Opti-MEM. 50,000 cells/well and added to the compound plates. After a short spin (1200 rpm for 1 min), the plates were incubated at 37° C. for 1 hour. The cells were activated by adding 15 μL of IMMUNOCULT™ Human CD3/CD28 T Cell Activator (STEMCELL Technologies) diluted in Opti-MEM. After 24 h of incubation at 37° C., aliquots of culture supernatants were transferred to OptiPlate-384 (PerkinElmer) microplates. The level of IL-2 secretion in the supernatants was then determined using the IL-2 (human) AlphaLISA Detection Kit (PerkinElmer) according to the manufacturer's recommendations. The AlphaLISA signal was measured using an EnVision plate reader (PerkinElmer). EC50 values were determined by fitting the data to a standard 4-parameter logistic equation. See Table 7 for data for select compounds (IL-2 Secretion (EC50)).
A general note: In Alpha technology, singlet oxygen from a donor bead excites a nearby acceptor bead.

The next assay has as its target T1, Cbl-b (Homo sapiens, UniProt Q13191).
T1 construct: biotin (biotinylated protein)
In words: Cbl-b probe displacement HTRF binding assay. As to conditions: 0.4 nM Cbl-b, 150 nM BODIPY probe. An outline of the steps:
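Binding IC50 from four-parameter fit of HTRF signal loss, normalised to DMSO (0%) and no-protein (100%) wells. Biotinylated Cbl-b 0.4 nM was preincubated 60 min with compound (20-point 1:2 dilution) before 15 min with 150 nM BODIPY probe; Tb-streptavidin detection.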
Background: In TR-FRET formats the signal depends on donor and acceptor labels being close together.

T1 sequence (Q13191 whole entry, species assumed): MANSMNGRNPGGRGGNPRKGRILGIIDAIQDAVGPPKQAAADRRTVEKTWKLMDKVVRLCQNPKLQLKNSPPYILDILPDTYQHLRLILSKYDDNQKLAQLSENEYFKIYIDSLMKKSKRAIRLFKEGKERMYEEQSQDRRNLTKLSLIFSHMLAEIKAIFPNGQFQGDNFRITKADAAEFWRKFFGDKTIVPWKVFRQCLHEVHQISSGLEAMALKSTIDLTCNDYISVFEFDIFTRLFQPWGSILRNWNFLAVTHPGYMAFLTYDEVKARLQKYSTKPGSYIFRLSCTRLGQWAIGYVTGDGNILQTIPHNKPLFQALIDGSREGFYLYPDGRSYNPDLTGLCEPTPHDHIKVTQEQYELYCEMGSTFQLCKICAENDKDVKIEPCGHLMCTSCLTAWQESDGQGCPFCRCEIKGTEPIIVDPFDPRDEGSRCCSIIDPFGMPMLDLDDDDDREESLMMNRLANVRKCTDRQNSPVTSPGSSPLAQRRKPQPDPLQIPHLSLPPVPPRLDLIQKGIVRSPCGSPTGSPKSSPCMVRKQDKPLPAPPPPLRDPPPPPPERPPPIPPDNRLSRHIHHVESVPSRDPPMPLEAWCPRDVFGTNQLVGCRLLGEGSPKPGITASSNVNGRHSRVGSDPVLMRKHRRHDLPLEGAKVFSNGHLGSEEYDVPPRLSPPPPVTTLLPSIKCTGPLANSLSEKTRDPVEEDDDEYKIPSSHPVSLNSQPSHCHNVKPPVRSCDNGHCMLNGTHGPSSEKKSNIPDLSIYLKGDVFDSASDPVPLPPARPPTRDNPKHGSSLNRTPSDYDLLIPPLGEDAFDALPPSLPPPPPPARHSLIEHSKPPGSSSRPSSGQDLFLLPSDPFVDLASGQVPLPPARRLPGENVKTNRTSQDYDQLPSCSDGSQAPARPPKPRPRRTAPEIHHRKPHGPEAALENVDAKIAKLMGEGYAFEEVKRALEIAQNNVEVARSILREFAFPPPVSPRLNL

As for `COCCNCc1cc(C(=O)Nc2cc(-c3ccc(F)cc3C(=O)N3CC(F)C3)cc(C3CC3)n2)c(=O)n(C2CC2)c1` [Example 67, N-(6-cyclopropyl-4-{4-fluoro-2-[(3-fluoro-1-azetidinyl)carbonyl]phenyl}-2-pyridyl)-1-cyclopropyl-5-[(2-methoxyethylamino)methyl]-2-oxo-1,2-dihydronicotinamide], the concentration giving a half-maximal response (EC50) in the assay on Jurkat cells is < 100 nM.
On to `COCCNCc1cc(C(=O)Nc2cc(-c3ccc(F)cc3C(=O)N3CC(F)(F)C3)cc(C3CC3)n2)c(=O)n(C2CC2)c1` [Example 68, N-(6-cyclopropyl-4-{2-[(3,3-difluoro-1-azetidinyl)carbonyl]-4-fluorophenyl}-2-pyridyl)-1-cyclopropyl-5-[(2-methoxyethylamino)methyl]-2-oxo-1,2-dihydronicotinamide], for which the concentration giving a half-maximal response (EC50) in the assay with Jurkat cells is < 100 nM.
In the case of `CO[C@@H](C)CNCc1cc(C(=O)Nc2cc(-c3ccc(Cl)cc3C(=O)N3CC(F)(F)C3)cc(OCC(F)(F)F)n2)c(=O)n(C2CC2)c1` [Example 82], the 50% effective concentration (EC50) in the assay with Jurkat cells was < 100 nM.
As to `CO[C@@H](C)CNCc1cc(C(=O)Nc2cc(-c3ccc(Cl)cc3C(=O)N3CC(F)(F)C3)cc(OCC(F)F)n2)c(=O)n(C2CC2)c1` [Example 83], the EC50 with Jurkat cells was < 100 nM.
The same measure, in the same setting: the result for `CC(C)CNCc1cc(C(=O)Nc2cc(-c3ccc(OC(F)F)cc3C(=O)N3CC(F)(F)C3)cc(C3CC3)n2)c(=O)n(C2CC2)c1` [Example 85, N-(6-cyclopropyl-4-{2-[(3,3-difluoro-1-azetidinyl)carbonyl]-4-difluoromethoxyphenyl}-2-pyridyl)-1-cyclopropyl-5-[(isobutylamino)methyl]-2-oxo-1,2-dihydronicotinamide] reads < 100 nM; that for `CO[C@@H](C)CNCc1cc(C(=O)Nc2cc(-c3ccc(OC(F)F)cc3C(=O)N3CC(F)(F)C3)cc(C3CC3)n2)c(=O)n(C)c1` [Example 87, N-[6-cyclopropyl-4-[2-(3,3-difluoroazetidine-1-carbonyl)-4-(difluoromethoxy)phenyl]pyridin-2-yl]-5-[[[(2S)-2-methoxypropyl]amino]methyl]-1-methyl-2-oxopyridine-3-carboxamide], > 5000 nM.
In the case of `Cn1cc(CNC[C@@H]2CCCO2)cc(C(=O)Nc2cc(-c3ccc(OC(F)F)cc3C(=O)N3CC(F)(F)C3)cc(C3CC3)n2)c1=O` [Example 88, N-[6-cyclopropyl-4-[2-(3,3-difluoroazetidine-1-carbonyl)-4-(difluoromethoxy)phenyl]pyridin-2-yl]-1-methyl-2-oxo-5-[[[(2S)-oxolan-2-yl]methylamino]methyl]pyridine-3-carboxamide], the EC50 in the assay with Jurkat cells was < 100 nM.
For the molecule `N#Cc1ccc(-c2cc(NC(=O)c3cc(CNCCC(F)F)cn(C4CC4)c3=O)nc(C3CC3)c2)c(C(=O)N2CC(F)(F)C2)c1` [Example 381], the half-maximal inhibitory concentration (IC50) at Cbl-b is < 100 nM.
On the same count and under the same terms, the value for `COCCNCc1cc(C(=O)Nc2cc(-c3ccc(Cl)cc3C(=O)N3CC(F)(F)C3)cc(C3CC3)n2)c(=O)n(C2CC2)c1` [Example 382] was < 100 nM; that for `N#Cc1ccc(-c2cc(NC(=O)c3cc(CNCC4CC4)cn(C4CC4)c3=O)nc(C3CC3)c2)c(C(=O)N2CC(F)(F)C2)c1` [Example 383] was < 100 nM.
For the molecule `C[C@@H]1C[C@H]1CNCc1cc(C(=O)Nc2cc(-c3ccc(Cl)cc3C(=O)N3CC(F)(F)C3)cc(C3CC3)n2)c(=O)n(C2CC2)c1` [Example 384], the concentration for half-maximal inhibition (IC50) at Cbl-b is < 100 nM.
For `CC1(CNCc2cc(C(=O)Nc3cc(-c4ccc(C#N)cc4C(=O)N4CC(F)(F)C4)cc(C4CC4)n3)c(=O)n(C3CC3)c2)CC1` [Example 385], at Cbl-b, the IC50 was < 100 nM.
For the molecule `CC(C)Oc1cc(-c2ccc(C#N)cc2C(=O)N2CC(F)(F)C2)cc(NC(=O)c2cc(CNC[C@@H]3COCCO3)cn(C)c2=O)n1` [Example 386], at Cbl-b, the half-inhibitory concentration (IC50) is < 100 nM.
On to `CO[C@@H](C)CNCc1cc(C(=O)Nc2cc(-c3ccc(F)cc3C(=O)N3CC(F)(F)C3)cc(OC(C)C)n2)c(=O)n(C)c1` [Example 387], for which the IC50 at Cbl-b is < 100 nM.
The same measure, in the same setting: the value for `O=C(Nc1cc(-c2ccc(OC(F)F)cc2C(=O)N2CC(F)(F)C2)cc(C2CC2)n1)c1cc(CNC[C@@H]2CCCCO2)cn(C2CC2)c1=O` [Example 388] was < 100 nM.
Turning to `CC(C)Oc1cc(-c2ccc(C#N)cc2C(=O)N2CC(F)(F)C2)cc(NC(=O)c2cc(CNC[C@@H]3CCCO3)cn(C)c2=O)n1` [Example 389], the concentration for half-maximal inhibition (IC50) on Cbl-b is < 100 nM.
Turning to `CC1(NCc2cc(C(=O)Nc3cc(-c4ccc(C#N)cc4C(=O)N4CC(F)(F)C4)cc(C4CC4)n3)c(=O)n(C3CC3)c2)CCC1` [Example 390], the IC50 on Cbl-b is < 100 nM.
Regarding `N#Cc1ccc(-c2cc(NC(=O)c3cc(CNCCC(F)(F)F)cn(C4CC4)c3=O)nc(C3CC3)c2)c(C(=O)N2CC(F)(F)C2)c1` [Example 391], the IC50 at Cbl-b was < 100 nM.
On the same count and under the same terms, the result for `CC(C)Oc1cc(-c2ccc(C#N)cc2C(=O)N2CC(F)(F)C2)cc(NC(=O)c2cc(CNC[C@@H]3CCCCO3)cn(C3CC3)c2=O)n1` [Example 392] reads < 100 nM; that for `CO[C@@H](C)CNCc1cc(C(=O)Nc2cc(-c3ccc(C#N)cc3C(=O)N3CC(F)(F)C3)cc(C3CC3)c2)c(=O)n(C2CC2)c1` [Example 393], < 100 nM; that for `CO[C@@H](C)CNCc1cc(C(=O)Nc2cc(-c3ccc(C#N)cc3C(=O)N3CC(C)(F)C3)cc(C3CC3)n2)c(=O)n(C2CC2)c1` [Example 394], < 100 nM.
Regarding `CC(C)[C@H](C)NCc1cc(C(=O)Nc2cc(-c3ccc(Cl)cc3C(=O)N3CC(F)(F)C3)cc(C3CC3)n2)c(=O)n(C2CC2)c1` [Example 395], the half-inhibitory concentration (IC50) at Cbl-b is < 100 nM.
On the same count and under the same terms, the result for `CO[C@@H](C)CNCc1cc(C(=O)Nc2cc(-c3ccc(F)cc3C(=O)N3CC(F)(F)C3)cc(C3CC3)c2)c(=O)n(C2CC2)c1` [Example 396] reads < 100 nM; that for `N#Cc1ccc(-c2cc(NC(=O)c3cc(CNC4CCCC4)cn(C4CC4)c3=O)nc(C3CC3)c2)c(C(=O)N2CC(F)(F)C2)c1` [Example 397], < 100 nM; that for `O=C(Nc1cc(-c2ccc(Cl)cc2C(=O)N2CC(F)(F)C2)cc(C2CC2)n1)c1cc(CNC[C@@H]2CCCCO2)cn(C2CC2)c1=O` [Example 398], < 100 nM.
For `C[C@H]1CCCN(Cc2cc(C(=O)Nc3cc(-c4ccc(C#N)cc4C(=O)N4CC(F)(F)C4)cc(C4CC4)n3)c(=O)n(C3CC3)c2)C1` [Example 399], on Cbl-b, the concentration for half-maximal inhibition (IC50) is < 100 nM.
Regarding `N#Cc1ccc(-c2cc(NC(=O)c3cc(CNCC4(F)CCC4)cn(C4CC4)c3=O)nc(C3CC3)c2)c(C(=O)N2CC(F)(F)C2)c1` [Example 400], the IC50 on Cbl-b was < 100 nM.
On to `COC(C)(C)CNCc1cc(C(=O)Nc2cc(-c3ccc(C#N)cc3C(=O)N3CC(F)(F)C3)cc(C3CC3)n2)c(=O)n(C2CC2)c1` [Example 401], for which, on Cbl-b, the IC50 was < 100 nM.
Consider `CO[C@H]1CC[C@@H]1NCc1cc(C(=O)Nc2cc(-c3ccc(C#N)cc3C(=O)N3CC(F)(F)C3)cc(C3CC3)n2)c(=O)n(C2CC2)c1` [Example 402], for which, on Cbl-b, the half-maximal inhibitory concentration (IC50) is < 100 nM.
Turning to `COCCNCc1cc(C(=O)Nc2cc(-c3ccc(F)cc3C(=O)N3CC(F)(F)C3)cc(C3CC3)n2)c(=O)n(C2CC2)c1` [Example 403], on Cbl-b, the half-maximal inhibitory concentration (IC50) is < 100 nM.
On to `COCCNCc1cc(C(=O)Nc2cc(-c3ccc(F)cc3C(=O)N3CC(F)C3)cc(C3CC3)n2)c(=O)n(C2CC2)c1` [Example 404], for which the half-inhibitory concentration (IC50) at Cbl-b was < 100 nM.
For the molecule `COCCNCc1cc(C(=O)Nc2cc(-c3c(Cl)cc(Cl)cc3C(=O)N3CC(F)(F)C3)cc(C3CC3)n2)c(=O)n(C2CC2)c1` [Example 405], on Cbl-b, the 50% inhibitory concentration (IC50) is < 100 nM.
With `O=C(Nc1cc(-c2ccc(Cl)cc2C(=O)N2CC(F)(F)C2)cc(C2CC2)n1)c1cc(CNCC2CC2)cn(C2CC2)c1=O` [Example 406], the concentration for half-maximal inhibition (IC50) at Cbl-b was < 100 nM.
Regarding `CC(C)Oc1cc(-c2ccc(C#N)cc2C(=O)N2CC(F)(F)C2)cc(NC(=O)c2cc(CNC[C@@H]3CCCCO3)cn(C)c2=O)n1` [Example 407], the IC50 at Cbl-b is < 100 nM.
As to `CC1(CNCc2cc(C(=O)Nc3cc(-c4ccc(Cl)cc4C(=O)N4CC(F)(F)C4)cc(C4CC4)n3)c(=O)n(C3CC3)c2)CC1` [Example 408], on Cbl-b, the IC50 was < 100 nM.
In the case of `N#Cc1ccc(-c2cc(NC(=O)c3cc(CN[C@H]4CCC[C@@H]4O)cn(C4CC4)c3=O)nc(C3CC3)c2)c(C(=O)N2CC(F)(F)C2)c1` [Example 409], the concentration for half-maximal inhibition (IC50) at Cbl-b is < 100 nM.
On the same count and under the same terms, the value for `CC(C)CCNCc1cc(C(=O)Nc2cc(-c3ccc(Cl)cc3C(=O)N3CC(F)(F)C3)cc(C3CC3)n2)c(=O)n(C2CC2)c1` [Example 410] was < 100 nM; that for `CO[C@@H](C)CNCc1cc(C(=O)Nc2cc(-c3cc(Cl)c(Cl)cc3C(=O)N3CC(F)(F)C3)cc(C3CC3)n2)c(=O)n(C2CC2)c1` [Example 411] was < 100 nM.
As for `N#Cc1ccc(-c2cc(NC(=O)c3cc(CNC[C@@H]4CCOC4)cn(C4CC4)c3=O)nc(C3CC3)c2)c(C(=O)N2CC(F)(F)C2)c1` [Example 412], the IC50 at Cbl-b was < 100 nM.
